Each structure is given as a SMILES string.

This test has as its target T1, NOX2 in differentiated HL60 cells (Homo sapiens, UniProt P04839).
T1 construct: Differentiation of HL-60 cells to granulocytes increases NOX2 expression; endogenous in cells; host or cells: HL60 cells differentiated into neutrophil-like cells with 1.3% DMSO
T1 sequence (P04839 2-570 limits assumed): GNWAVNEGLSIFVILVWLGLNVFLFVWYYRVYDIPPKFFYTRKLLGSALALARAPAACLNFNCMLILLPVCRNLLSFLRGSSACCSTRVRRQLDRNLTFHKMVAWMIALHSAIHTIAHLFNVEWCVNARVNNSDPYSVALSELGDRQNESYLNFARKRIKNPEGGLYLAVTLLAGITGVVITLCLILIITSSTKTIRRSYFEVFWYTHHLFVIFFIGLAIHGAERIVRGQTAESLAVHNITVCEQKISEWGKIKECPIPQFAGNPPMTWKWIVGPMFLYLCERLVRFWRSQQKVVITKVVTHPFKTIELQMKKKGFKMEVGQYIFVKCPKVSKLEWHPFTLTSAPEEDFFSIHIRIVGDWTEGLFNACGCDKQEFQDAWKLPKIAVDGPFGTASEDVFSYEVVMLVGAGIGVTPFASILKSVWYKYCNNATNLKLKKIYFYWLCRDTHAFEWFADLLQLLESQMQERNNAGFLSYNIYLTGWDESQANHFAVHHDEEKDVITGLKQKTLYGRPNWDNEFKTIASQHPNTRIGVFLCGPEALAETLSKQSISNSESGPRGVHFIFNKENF
T1 sequence (P13498 2-195 partner limits assumed): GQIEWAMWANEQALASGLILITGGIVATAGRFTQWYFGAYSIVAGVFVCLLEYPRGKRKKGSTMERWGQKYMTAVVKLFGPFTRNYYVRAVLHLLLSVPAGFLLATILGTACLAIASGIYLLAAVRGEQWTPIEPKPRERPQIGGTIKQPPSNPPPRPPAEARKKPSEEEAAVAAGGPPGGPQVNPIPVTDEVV
Description: HL60 cell-based assays: superoxide production by NOX2 (Oxyburst Assay 1 or L012 Assay 2). The settings on record: PMA-stimulated differentiated HL60 cells; in at least one of the HL60 assays (Oxyburst fluorescence or L012 luminescence). As for the experimental part: In the cell-based assay, superoxide production by NOX2 was measured in differentiated HL60 cells, a human myelomonocytic leukemia cell line, using either Oxyburst (Assay1) or L012 (Assay2). Differentiation of HL-60 cells to granulocytes increases NOX2 expression. The phorbol 12-myristate 13-acetate (PMA) was used to stimulate the production of superoxide in HL60 cells by activating protein kinase C, which then activated the NADPH oxidase (NOX) enzymes. Inhibition of NOX2 enzyme was detected by the reversal of fluorescence signal (Assay 1) or luminescence signal (Assay2). The control inhibitor used was diphenyleneiodonium chloride (DPI), a […] inhibitor capable of non-selectively inhibiting superoxide produced by NOX enzymes.
Assay 1: in this high-throughput screening assay, oxyburst green bovine serum albumin (BSA) was used to detect superoxide production in HL60 cells. Oxidation of Oxyburst green BSA by hydrogen peroxide as a result of the activation of NOX2 by PMA. Oxyburst green BSA fluorescence was measured at excitation 485 nm and emission 530 nm.
Assay 2: in this assay, a chemiluminescence probe, L-012 was used to detect superoxide production in HL60 cells. L-012 reacted with various types of reactive oxygen species generated by PMA-activated HL60 cells. Luminescence was measured using Tecan Infinite 500.
The HL60 cells were differentiated into neutrophil-like cells by adding 1.3% DMSO in the media for 3-7 days (Hua, J et al. (2000) Journal of Leukocyte Biology. 68:216-224). Iscove's Modified Dulbecco's Media (IMDM) with L-Glutamine and 25 mM HEPES buffer, Fetal Bovine Serum (FBS), Penicillin/Streptomycin, Oxyburst Green BSA, PBS, and HBSS buffer with Calcium Chloride and Magnesium Chloride were purchased from Invitrogen (Catalog #s: 12440-061, 10500-064, 15140-163, O-13291, 14190-250, and 14025-134 respectively). Phorbol 12-myristate 13-acetate (PMA), glucose, and CHAPS were purchased from Sigma (Catalog #s: 79346, D-9434, and C5070 respectively). Diphenyleneiodonium chloride (DPI) was purchased from Toronto Research Chemicals (Catalog #: D491500). L-012 was purchased from Wako Chemical (Catalog #: 120-04891). Dimethyl sulfoxide (DMSO) was purchased EMD Chemicals (VWR Catalog #: MX1456-1). Multidrop combi was purchased from Thermo Electron Corporation (Waltham, Mass., USA). Hummingbird nanoliter liquid dispenser was purchased from Genomics Solution (Ann Arbor, Mich., USA). 384 well low-volume plates and polypropylene 384 well clear plates were purchased from Greiner (Catalog #: 784076 and 781280 respectively). 96 well plate and 384 well plate black assay plates were purchased from Greiner (Catalog #: 655094 and 781098). 96 well plate for compound serial dilution was purchased from Corning (Catalog #: 9017). Acquest or Analyst fluorescence plate reader was purchased from LJL Biosystems/Molecular Devices (California, USA). Tecan Infinite 500 was purchased from Tecan (Switzerland).
HL60 cells were thawed and resuspended in Cells media. The cells were centrifuged at 1200 rpm for 5 minutes. Media was aspirated and the cells were resuspended in Cells buffer. The cells were counted and resuspended to 0.5×10^6 cells/mL.
Full inhibition controls were dispensed using 100 nL/well of 1 mM DPI in DMSO to column 18 of a 384 well plate. Compounds were dispensed using 100 nL/well. Full activity controls were dispensed using 100 nL/well of 4 uM PMA in DMSO. Oxyburst Green BSA was added to cell solution at 10 ug/mL. Using the Multidrop, 10 uL cell solution was added to the entire assay plate. The assay plate was incubated at room temperature for 100 minutes. Fluorescence reading was taken after 100 minutes at excitation 485 and emission 530 using 505 Dichroic on the Acquest or Analyst.
Serial dilution (1:3.16 fold serial dilution) of the compounds was performed in 100% DMSO in 96 well plate—Row B-H Column 1-10. Row A, Column 1-10 contained DPI serial dilution. Starting concentration was 10^−2 M (10 mM). […]
`CN1Cc2ccc(-c3cn(C)c4nccc(NS(=O)(=O)c5ccccc5)c34)cc2C1` [Example 251, N-[1-methyl-3-(2-methyl-2,3-dihydro-1H-isoindol-5-yl)-1H-pyrrolo[2,3-b]pyridin-4-yl]benzenesulfonamide]: the IC50 (in general, the concentration that gives 50% inhibition) is over 100 µM. `CC(C)N1CCN(c2cncc(-c3cn(C)c4nccc(NS(=O)(=O)c5cccc(Cl)c5)c34)c2)CC1` [Example 25, 3-chloro-N-(3-(5-(4-isopropylpiperazin-1-yl)pyridin-3-yl)-1-methyl-1H-pyrrolo[2,3-b]pyridin-4-yl)benzenesulfonamide] had a half-inhibitory concentration (IC50) of over 100 µM. `CN1C(=O)COc2ccc(-c3cn(C)c4nccc(NS(=O)(=O)c5ccccc5)c34)cc21` [Example 39, N-(1-methyl-3-(4-methyl-3-oxo-3,4-dihydro-2H-benzo[b][1,4]oxazin-6-yl)-1H-pyrrolo[2,3-b]pyridin-4-yl)benzenesulfonamide] showed a half-inhibitory concentration (IC50) of over 100 µM.

`COc1cc(-c2cn(C)c3nccc(NS(=O)(=O)c4ccccc4)c23)cc(N2CCN(C(C)C)CC2)c1` [Example 29, N-(3-(3-(4-isopropylpiperazin-1-yl)-5-methoxyphenyl)-1-methyl-1H-pyrrolo[2,3-b]pyridin-4-yl)benzenesulfonamide] showed a 50% inhibitory concentration (IC50) of over 100 µM. On to `COc1cc(-c2cn(C)c3nccc(NS(=O)(=O)c4ccccc4)c23)cc(N2CCN(C)CC2)c1` [Example 28, N-(3-(3-methoxy-5-(4-methylpiperazin-1-yl)phenyl)-1-methyl-1H-pyrrolo[2,3-b]pyridin-4-yl)benzenesulfonamide], for which the IC50 was over 100 µM. Regarding `Cn1c(-c2cc[nH]n2)c(-c2cccc(N3CCCC3)c2)c2c(NS(=O)(=O)c3ccccc3)ccnc21` [Example 173, N-(1-methyl-2-(1H-pyrazol-3-yl)-3-(3-(pyrrolidin-1-yl)phenyl)-1H-pyrrolo[2,3-b]pyridin-4-yl)benzenesulfonamide], the IC50 is over 100 µM.
